Measurements as given in patent publication US7615533B2, “TPO peptide compounds for treatment of anemia” (Janssen Pharmaceutica N.V., priority 2004, dated 2009).
“Also recorded” adds a separate entry of the source. Non-standard residues stand in square brackets, D forms with d. No end group written: not given here. 2Nal = N[C@@H](Cc1ccc2ccccc2c1)C(=O)O; Sar = CNCC(=O)O

Legend:
carboplatin treated mice [1] = assay: Example 6: mechanistic study, increasing carboplatin, hematology and brain fibrinogen/fibrin histology; assay type: in vivo, mouse
Description: (§1) The effects of PEGylated TPO Compound No. 1 on mice treated with carboplatin were observed. For all examples herein, a 10 mg/ml stock solution of PEGylated TPO Compound No. 1 was prepared in sterile saline. For mixing, the preparation was placed on a gyratory shaker for 15 mm. at 200 rpm. This method was used to dissolve PEGylated TPO Compound No. 1 without foaming. The stock was filtered using a GV Millex (0.22 μm) filter. Dosing solutions were then prepared from this stock using sterile saline. The stock and dosing solutions were prepared fresh on the day of use.
For mechanistic studies, groups of mice were treated with vehicle or increasing amounts of carboplatin (i.e., 60, 70 or 80 mg/kg) for 2 consecutive days (Day −1 & Day 0). Approximately one hour following the second dose of carboplatin, groups of mice were treated with PEGylated TPO Compound No. 1 (100 μg/kg) or vehicle (sterile saline, SS, preservative-free 0.9% sodium chloride) by IV (bolus) injection as delineated in Table 5.
On Day 15, the mice in all treatment groups were euthanised using CO2-asphyxiation and exsanguinations via cardiac puncture. The blood samples were transferred to separate EDTA (lavender-top) microtainers for hematologic evaluation. In addition, several organs (including the brains) of control mice and mice treated with 2×70 mg/kg carboplatin without and with co-treatment with PEGylated TPO Compound No. 1 were isolated and processed for histological examination. Sections of these tissues were processed immunohistochemically for fibrinogen/fibrin.

carboplatin treated mice [2] = assay: Example 2: dosing before and/or after carboplatin, hematological parameters in mice; assay type: in vivo, BALB/c mouse
Description: as §1
The possibility that PEGylated TPO Compound No. 1 may sensitize bone marrow hematopoietic stem cells of mice to the toxic effects of carboplatin treatment was examined. For this study, a dose of PEGylated TPO Compound No. 1 was administered to the mice seven days prior to the carboplatin dose or immediately after carboplatin treatment. An additional group was treated with PEGylated TPO Compound No. 1 both prior to and after carboplatin administration. The effect of these dosing regimens on hematological parameters was also observed.
The groups of mice were treated with either carboplatin or vehicle (Phosphate Buffered Saline, PBS) by ip administration on Days 7 and 8 as delineated below. The optimal dose of carboplatin used to induce thrombocytopenia in the BALB/c mouse strain was previously determined to be a fractionated total dose of 120 mg/kg given as two consecutive daily injections (i.e., 2×60 mg/kg). Seven days prior to the first carboplatin dose or one (1) hour after the second dose of carboplatin, groups of mice were treated with PEGylated TPO Compound No. 1 (300 μg/kg) or vehicle (sterile saline, SS, preservative-free 0.9% sodium chloride) by IV (bolus) injection as delineated in Table 2. An additional group was treated with PEGylated TPO Compound No. 1 both before (Day 0) and after (Day 8, t=1 h) the carboplatin dose. All dosing was performed on a per-weight basis (100 μl/10 g body weight).
On Days 14, 18, 22 and 26, five mice in each test group were weighed and then euthanised using CO2-asphyxiation and exsanguination via cardiac puncture. The blood samples were transferred to separate EDTA (lavender-top) microcontainers for hematological evaluation. Groups of control mice (5) were processed on Days 14 and 26. The data are presented graphically as group means +SEM.

[3] = target: T1, human TPO receptor, c-mpl (hTPOr) (Homo sapiens, UniProt P40238); assay: Example 7: Baf/3 hTPOr fos/lux luciferase reporter assay; assay type: cell-based
T1 construct: expressed in transfected cells
T1 sequence (P40238 26-635): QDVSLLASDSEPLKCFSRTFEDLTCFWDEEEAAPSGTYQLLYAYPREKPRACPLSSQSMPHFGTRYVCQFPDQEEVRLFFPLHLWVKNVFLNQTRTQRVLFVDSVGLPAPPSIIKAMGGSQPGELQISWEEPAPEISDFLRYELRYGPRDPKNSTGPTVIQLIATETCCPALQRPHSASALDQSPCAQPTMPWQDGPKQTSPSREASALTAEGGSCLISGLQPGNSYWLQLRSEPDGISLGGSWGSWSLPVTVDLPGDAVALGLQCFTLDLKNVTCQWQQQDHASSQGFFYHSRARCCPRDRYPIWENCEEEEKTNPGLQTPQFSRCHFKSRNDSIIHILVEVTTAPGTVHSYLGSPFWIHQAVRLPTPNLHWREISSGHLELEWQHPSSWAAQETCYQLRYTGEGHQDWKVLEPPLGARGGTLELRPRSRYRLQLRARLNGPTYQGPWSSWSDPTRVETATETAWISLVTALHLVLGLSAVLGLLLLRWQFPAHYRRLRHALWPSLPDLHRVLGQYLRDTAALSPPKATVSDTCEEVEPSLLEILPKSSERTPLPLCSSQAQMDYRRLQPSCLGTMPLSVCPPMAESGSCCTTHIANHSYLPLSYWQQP
Text: The activity of the peptide compounds can be determined using standard relative luminescent units assay techniques. The assay employs, e.g., murine cells engineered to stably express the human TPO receptor and a luciferase reporter construct driven by the fos promoter. The assay may be performed as follows: Serum deprived Baf/3 hTPOr fos/lux cells expressing the human TPO receptor, c-mpl (hTPOr), and a luciferase reporter construct are exposed to increasing concentrations of either rhTPO or peptide compound for approximately 18 hours. Cells are then incubated in a medium containing a luciferase substrate and the luminescence of the cells is measured using a luminometer.

Compound: N.N.O=C([O-])C1(C(=O)[O-])CCC1.[Pt+2] [carboplatin, reference compound]
- mortality (carboplatin treated mice [1]; 2×80 mg/kg carboplatin (alone), all of the mice, prior to study termination): either found dead or were euthanized (moribund)
- decreases in hemoglobin levels, RBC counts and hematocrits (carboplatin treated mice [2]; carboplatin alone 2×60 mg/kg ip, Days 18 and 22 compared to control groups): approx. 18%
- body weight loss (average) (carboplatin treated mice [2]; carboplatin alone, between Days 7 and 26): approximately 4%

Compound: Methoxypolyethyleneglycol20000-propionyl-L-Isoleucyl-L-Glutamyl-Glycyl-L-Prolyl-L-Threonyl-L-Leucyl-L-Arginyl-L-Glutaminyl-L-2-Naphthylalanyl-L-Leucyl-L-Alanyl-L-Alanyl-L-Arginyl-Sarcosyl-Ne-(methoxypolyethyleneglycol20000-propionyl-L-Isoleucyl-L-Glutamyl-Glycyl-L-Prolyl-L-Threonyl-L-Leucyl-L-Arginyl-L-Glutaminyl-L-2-Naphthylalanyl-L-Leucyl-L-Alanyl-L-Alanyl-L-Arginyl-Sarcosyl-)-Lysinamide ({methoxypolyethyleneglycol20000‑propionyl}-IEGPTLRQ[2Nal]LAAR[Sar]K[Sar]RAAL[2Nal]QRLTPGEI; also: dimer: positions 16-29 are the second 14-mer written in reverse, its Sar C-terminus joined to the K15 epsilon-amine, K15 is C-terminal lysinamide (NH2), methoxypolyethyleneglycol20000-propionyl also on Ile29 N-terminus) [PEGylated TPO Compound No. 1]
- carboplatin-induced decreases in platelet and RBC counts (carboplatin treated mice [1]; 100 μg/kg iv about one hour after second carboplatin dose, Day 15): totally inhibited
- microthrombotic events in brain sections, entire dose group (carboplatin treated mice [1]; 2×70 mg/kg carboplatin plus 100 μg/kg iv): single
- fibrinogen/fibrin staining of small vessels in brain sections (carboplatin treated mice [1]; 2×70 mg/kg carboplatin plus 100 μg/kg iv, Day 15, 70 mg/kg): appeared normal or exhibited fibrinogen/fibrin staining that was only slightly darker than the control group; also recorded: reduces fibrinogen deposition and blood clots
- thrombocytopenia or anemia (carboplatin treated mice [1]; 2×80 mg/kg carboplatin plus 100 μg/kg iv, Day 15): did not exhibit thrombocytopenia or anemia
- survival (carboplatin treated mice [1]; 2×80 mg/kg carboplatin plus 100 μg/kg iv, all of the mice): survived until the scheduled study termination
- activation of TPO-R compared with TPO ([3]; at the same concentration as TPO): stronger activation
- activation of Baf/3 cells recombinantly expressing human TPO-R ([3]; increasing concentrations): dose dependent
- carboplatin-induced changes in erythrocyte parameters (carboplatin treated mice [2]; 300 μg/kg iv on Day 0 (only), seven days prior to carboplatin): failed to affect carboplatin-induced changes
- carboplatin-induced decreases in hemoglobin levels, RBC counts and hematocrits (carboplatin treated mice [2]; 300 μg/kg iv on Day 8 (1 hour after second carboplatin) without or with additional dose on Day 0): prevented
- body weight between Days 7 and 26 (carboplatin treated mice [2]; carboplatin plus various co-treatments, 300 μg/kg iv, no statistical analysis): prevented this weight loss
- onset of signs (hunched, unkempt) (carboplatin treated mice [2]; treatment on Day 8 without or with additional treatment on Day 0): appeared to delay the onset of these signs
- severity and duration of signs (hunched, unkempt) (carboplatin treated mice [2]; treatment on Days 0 and 8): decreased the severity and duration
